Reference: patent publication US20100279997A1, “ANALGESIC THAT BINDS FILAMIN A” (priority 2009, published 2010)

Biological target: T1, μ opiate receptor (MOR) (Rattus norvegicus, UniProt P33535)
T1 construct: from tissue; host or cells: striatal tissue (membrane preparation)
Assay: MOR agonist activity, [35S]GTPγS binding assay using striatal membranes
Format: biochemical
Conditions: for [35S]GTPγS binding to Gαo, FLNA-binding compound as agonist 0.1 μM: 0.1 μM compound; for [35S]GTPγS binding to Gαo, FLNA-binding compound as agonist 0.1 μM / [35S]GTPγS binding to Gαo, FLNA-binding compound as agonist 1 μM: striatal membranes; for [35S]GTPγS binding to Gαo, FLNA-binding compound as agonist 1 μM + BFNA: 1 μM compound + 1 μM β-funaltrexamine; for [35S]GTPγS binding to Gαo, FLNA-binding compound as agonist 1 μM: 1 μM compound; for % DAMGO + BFNA: relative to DAMGO + BFNA; for % DAMGO (0.1 μM) / % DAMGO (1 μM): relative to DAMGO
Protocol: To assess the μ opiate receptor (MOR) agonist activity of positive compounds from the FLNA screening, compounds were tested in a [^35S]GTPγS binding assay using striatal membranes.
Striatal tissue was homogenized in 10 volumes of ice cold 25 mM HEPES buffer, pH 7.4, which contained 1 mM EGTA, 100 mM sucrose, 50 μg/ml leupeptin, 0.04 mM PMSF, 2 μg/ml soybean trypsin inhibitor and 0.2% 2-mercaptoethanol. The homogenates were centrifuged at 800×g for 5 minutes and the supernatants were centrifuged at 49,000×g for 20 minutes. The resulting pellets were suspended in 10 volume of reaction buffer, which contained 25 mM HEPES, pH 7.5, 100 mM NaCl, 50 μg/ml leupeptin, 2 μg/ml soybean trypsin inhibitor, 0.04 mM PMSF and 0.02% […].
The resultant striatal membrane preparation (200 μg) was admixed and maintained (incubated) at 30° C. for 5 minutes in reaction buffer as above that additionally contained 1 mM MgCl2 and 0.5 nM [^35S]GTPγS (0.1 μCi/assay, PerkinElmer Life and Analytical Sciences) in a total volume of 250 μl and continued for 5 minutes in the absence or presence of 0.1-10 μM of an assayed compound of interest. The reaction was terminated by dilution with 750 μl of ice-cold reaction buffer that contained 20 mM MgCl2 and 1 mM EGTA and immediate centrifugation at 16,000×g for 5 minutes.
The resulting pellet was solubilized by sonicating for 10 seconds in 0.5 ml of immunoprecipitation buffer containing 0.5% digitonin, 0.2% sodium cholate and 0.5% NP-40. Normal rabbit serum (1 μl) was added to 1 ml of lysate and incubated at 25° C. for 30 minutes. Nonspecific immune complexes were removed by incubation with 25 μl of protein A/G-conjugated agarose beads at 25° C. for 30 minutes followed by centrifugation at 5,000×g at 4° C. for 5 minutes. The supernatant was divided and separately incubated at 25° C. for 30 minutes with antibodies raised against Gao proteins (1:1,000 dilutions).
The immunocomplexes so formed were collected by incubation at 25° C. for 30 minutes with 40 μl of agarose-conjugated protein A/G beads and centrifugation at 5,000×g at 4° C. for 5 minutes. The pellet was washed and suspended in buffer containing 50 mM Tris-HCl, pH 8.0, and 1% NP-40. The radioactivity in the suspension was determined by liquid scintillation spectrometry. […] DAMGO (H-Tyr-D-Ala-Gly-N-MePhe-Gly-OH; 1 or 10 μM) was used as a positive control.

T1 sequence (P33535 whole entry): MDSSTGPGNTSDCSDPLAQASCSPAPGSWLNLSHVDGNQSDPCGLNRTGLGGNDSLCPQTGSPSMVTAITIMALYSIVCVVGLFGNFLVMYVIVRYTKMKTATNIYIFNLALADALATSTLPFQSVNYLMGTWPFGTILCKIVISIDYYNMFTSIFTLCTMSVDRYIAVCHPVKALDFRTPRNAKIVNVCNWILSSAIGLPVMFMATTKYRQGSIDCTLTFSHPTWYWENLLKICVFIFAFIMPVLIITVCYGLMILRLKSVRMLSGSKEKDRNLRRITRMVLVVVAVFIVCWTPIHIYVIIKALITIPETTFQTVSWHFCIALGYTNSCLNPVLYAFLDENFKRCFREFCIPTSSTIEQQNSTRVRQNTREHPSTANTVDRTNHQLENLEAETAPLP

SMILES	[35S]GTPγS binding to Gαo, FLNA-binding compound as agonist 0.1 μM	[35S]GTPγS binding to Gαo, FLNA-binding compound as agonist 1 μM + BFNA	[35S]GTPγS binding to Gαo, FLNA-binding compound as agonist 1 μM	% DAMGO + BFNA	% DAMGO (0.1 μM)	% DAMGO (1 μM)
OC(COc1ccc(Br)c(F)c1)CN1CCSCC1 (stereo not drawn) [Compound A0059]	99.2%	85.7%	129.9%			
CC1CN(CC(O)COc2cccc(N(C)C)c2)CC(C)O1 (stereo not drawn) [Compound A0042]	147.5%	89.5%	233.1%			
COc1ccc(OCC(O)Cn2ccc3ccccc32)cc1 (stereo not drawn) [Compound A0077]	300.1%	103.5%	334.7%	470.5%	170.5%	132.3%
CC1CCC(C(C)C)C(OCC(O)CN2CCN(CCN3CCCCC3)CC2)C1 (stereo not drawn) [Compound A0031]	178.2%	150.9%	297.0%			
CC1CCC(C(C)C)C(OCC(O)CN2CCC2)C1 (stereo not drawn) [Compound A0015]	110.9%	62.5%	150.1%			
OC(COc1ccc(Br)c(F)c1)CN1CCCCC1 (stereo not drawn) [Compound A0058]	70.7%	59.9%	244.3%			
CC1CN(CC(O)COc2cc(F)cc(F)c2)CC(C)O1 (stereo not drawn) [Compound A0046]	257.5%	140.0%	354.1%	189.4%	131.2%	128.3%
CC1CN(CC(O)COc2ccc(Br)c(Cl)c2)CC(C)O1 (stereo not drawn) [Compound A0045]	143.9%	99.2%	274.2%			
CC1CCC(C(C)C)C(OCC(O)CN2CCCN(C)CC2)C1 (stereo not drawn) [Compound A0010]	277.2%	190.3%	319.0%			
CCN(CC)CC(O)COC1CC(C)CCC1C(C)C (stereo not drawn) [Compound A0032]	226.9%	133.0%	257.8%			
CN(C)c1cccc(OCC(O)CN2CCc3ccccc3C2)c1 (stereo not drawn) [Compound A0050]	151.0%	81.0%	189.3%			
CC1CN(CC(O)COc2ccccc2)CC(C)O1 (stereo not drawn) [Compound A0025]	58.6%	52.2%	138.7%			
Cc1ccc(C(C)C)c(OCC(O)CN2CC(C)OC(C)C2)c1 (stereo not drawn) [Compound A0028]	143.6%	116.7%	187.7%			
CC1CN(CC(O)COC2CCCCC2)CC(C)O1 (stereo not drawn) [Compound A0017]	161.9%	65.2%	246.0%			
CC1CCC(C(C)C)C(OCC(O)CN2CC(C)CC(C)C2)C1 (stereo not drawn) [Compound A0008]	163.8%	133.9%	235.0%			
CC1CCC(C(C)C)C(OCC(O)CN2CCCc3ccccc32)C1 (stereo not drawn) [Compound A0068]	73.9%	98.1%	110.4%			
COc1ccc(OCC(O)CN2CC(C)OC(C)C2)cc1 (stereo not drawn) [Compound A0048]	233.7%	167.2%	302.9%			
CC1CCC(C(C)C)C(OCC(O)CN2CCCCC2=O)C1 (stereo not drawn) [Compound A0036]	144.1%	63.2%	167.5%			
COc1ccc(OCC(O)CN2CCc3ccccc3C2)cc1 (stereo not drawn) [Compound A0053]	78.5%	15.1%	118.2%			
COc1ccc(OCC(O)CN2CCOc3ccccc32)cc1 (stereo not drawn) [Compound A0076]	79.8%	41.2%	172.6%	119.4%	46.4%	78.6%
COc1ccc(N2CCN(CC(O)COC3CC(C)CCC3C(C)C)CC2)c(OC)c1 (stereo not drawn) [Compound A0012]	149.3%	122.4%	185.7%			
CC1CCC(C(C)C)C(OCC(O)CN2CCSCC2)C1 (stereo not drawn) [Compound A0003]	176.8%	17.1%	276.0%			
CC1CN(CC(O)COc2ccccc2Br)CC(C)O1 (stereo not drawn) [Compound A0043]	183.3%	89.1%	223.8%			
COc1c2c(cc3c1OCO3)CCN(CC(O)COC1CC(C)CCC1C(C)C)C2 (stereo not drawn) [Compound A0061]	110.3%	10.7%	197.1%			
CC1CCC(C(C)C)C(OCC(O)Cn2cccc2)C1 (stereo not drawn) [Compound A0038]	176.7%	107.0%	234.5%			
CC1CCC(C(C)C)C(OCC(O)CN2CCN(C)CC2)C1 (stereo not drawn) [Compound A0009]	70.2%	93.9%	126.4%			
CC1CCN(CC(O)COC2CC(C)CCC2C(C)C)CC1 (stereo not drawn) [Compound A0006]	170.0%	18.2%	190.9%			
